What was measured:
Assay type in all cases: in vivo, Arabidopsis thaliana
PHT1 genes (PHT1;4) = assay: qPCR of PHT1 transcript level on root mRNA; conditions: qPCR on root mRNA, FIG. 2 (B)
Procedure: Plant RNA was extracted with the RNeasy kit (QIAGEN, France). For transcriptome data, RNA were analysed by the CATMA technology (Complete Arabidopsis Transcriptome Microarray). For qPCR, poly(dT) cDNA were prepared from 500 ng total RNA with Superscript III reverse transcriptase (Invitrogen, France) and analysed on a LightCycler 480 apparatus (Roche Diagnostics, France) with the SYBR Green I Master kit (Roche Diagnostics, France) according to the manufacturer's instructions. Targets were quantified with specific primer pairs designed with Primer3 website (http://frodo.wi.mit.edu/primer3/) (see Table II below). Biological triplicates were performed for all experiments. Expression levels were normalized using At2g16600, At3g04120, At1g35160 and At1g32050 genes.

PHT1;4 expression = assay: Chemical genetics screen, GUS staining of pht1;4-1 reporter line
Description: (§1) A “chemical genetics” approach has been carried out to isolate compounds that inhibit the phosphate (Pi) response in Arabidopsis thaliana. Compounds were screened for their ability to inhibit the expression of a phosphate starvation marker, namely the high affinity Pi transporter PHT1,4 gene. For the screening, the A. thaliana pht1;4-1 line (ecotype Wassilewskija) was chosen (Misson et al., 2004). It contains a T-DNA construct inserted into Pht1;4 gene creating a transcriptional fusion with a GUS reporter gene. For phenotypic analyses, A. thaliana Columbia and various lines derived from this ecotype were used. They are either transgenic lines expressing reporter gene as cycB1::GUS (Colón Carmona et al., 1999), MGD3::LUC, PHT1;4::LUC, At1g73010::LUC or various mutants affecting root response to low Pi such as: pdr2 (Ticconi et al., 2004), lpr1, lpr2 (Svistoonoff et al., 2007), lpi1, lpi2 and lpi3 (Sanchez-Calderon et al., 2006).
For the screening, the LATCA collection of 3600 biologically active compounds (Zhao et al., 2007) was used at a final concentration of 25 μM in 1% DMSO. Four to five Arabidopsis seeds of pht1;4-1 (Misson et al., 2004) reporter line were sown in 96-well plates containing 100 μL liquid MS/10 medium with 500 μM of Pi at pH 5.7. After 2 days at 4° C., plants were grown for five days in a culture chamber under a 16 h light/8 h dark regime (24/21° C., 150 μE m^−2s^−1). Medium was then replaced by MS/10 with only 5 μM Pi and the tested compounds were added to the 96-well plates. […] Five days later, plantlets were analysed by GUS staining to assay the activity of the reporter gene inserted in pht1;4 gene. […] Then, plates were analysed using a MZ16 stereomicroscope (Leica microsystems, Germany).
The GUS activity was detected as previously described by Jefferson et al. (1987), using a GUS staining solution containing 50 mM sodium phosphate buffer pH 7.0; 0.01% Triton X-100, 1 mM K3Fe(CN)6, 1 mM K4Fe(CN)6, 1 mg/ml 5-bromo-4-chloro-3-indolyl B-D-glucuronide (X-Gluc). […]

wild-type (WT) seedlings = assay: Primary root growth of wild-type seedlings; conditions: for activity of PTN1 analogues (inhibitor activity of PHT1;4 expression and effect on the growth): WT seedlings, FIG. 6; for concentration at which active on primary root growth: −Pi
Procedure: (§2) In the Pi deficient medium, NaCl (0.5 mM) was used to replace the equivalent amount of sodium provided by NaH2PO4. For controls of the effects of the compounds, 1% of DMSO (Dimethyl sulfoxid, SIGMA, 472301), solvent for the tested compounds, was added. After 2 days at 4° C., the plates were placed in a vertical position and plants were grown in a culture chamber under a 16 h light/8 h dark regime (24/21° C., 150 μE m^−2s^−1). For 4 weeks culture, large plates (24×24 cm) were placed in a horizontal position. Root architecture and aerial part area were quantified using program ImageJ.

[1] = system: lpr1, lpr2 and lpi mutants; assay: Primary root growth of mutants with reduced root sensitivity to Pi starvation; conditions: 7-days-old plants, PTN1 40 μM, FIG. 8
Description: as §1
In the Pi deficient medium, NaCl (0.5 mM) was used to replace the equivalent amount of sodium provided by NaH2PO4. For controls of the effects of the compounds, 1% of DMSO (Dimethyl sulfoxid, SIGMA, 472301), solvent for the tested compounds, was added. […] Root architecture and aerial part area were quantified using program ImageJ.

lpr1 mutant = assay: Shoot growth of lpr1 mutant; conditions: −Pi, 28-days-old plants
Procedure: as §2

CS(=O)(=O)C1=C2C=CCCC2=C(C(=O)Sc2ccc(Cl)cc2)C1 [PTN2]
effect on PHT1;4 transcript level (PHT1 genes (PHT1;4)): dose dependant manner
toxicity as cause of reduced reporter gene expression (PHT1;4 expression; 25 μM, 5 days on −Pi): not explained by toxicity

Sc1ccc(Cl)cc1 [PTN3, 4-chlorothiophenol]
PHT1;4 expression (analogue test) (PHT1;4 expression; 100 μM): repressed PHT1;4 expression
activity of PTN1 analogues (inhibitor activity of PHT1;4 expression and effect on the growth) (wild-type (WT) seedlings): Active
primary root growth on −Pi (wild-type (WT) seedlings; WT, 7-day-old plantlets, FIG. 7 (A)): sustained also the primary root growth
concentration at which active on primary root growth (wild-type (WT) seedlings; FIG. 7 (A)): 100 µM

Clc1ccc(SSc2ccc(Cl)cc2)cc1 [PTN4]
primary root growth of lpr1 or lpi mutants [1]: no additive effect
primary root growth at various external Pi concentrations (15-250 uM) (wild-type (WT) seedlings; 10 uM, 5 days on Pi rich medium then 24 hours on tested conditions, FIG. 7 (D)): improved root growth until 50/75 μM of Pi
activity of PTN1 analogues (inhibitor activity of PHT1;4 expression and effect on the growth) (wild-type (WT) seedlings): Active
concentration at which active on primary root growth (wild-type (WT) seedlings; FIG. 7 (A)): 10 µM
growth of the lpr1 rosette (lpr1 mutant): +25%
